Values of other authors as cited in patent US6288110A, “Pharmaceutical compositions comprising disulfiram” (Yeda Research and Development Co Ltd., priority 1998, dated 2001).

Details: non-enzymatic degradation; cited from earlier work

CCN(CC)C(=S)S [DDC, diethyldithiocarbamate]
further metabolism of DDC: non-enzymatic degradation to diethylamine (DEA)
